We go through 22 compounds from patent US20230107642A1 (Erasca, Inc., priority 2020, published 2023).

The structures appear in SMILES notation.

The first test has as its target T1, Cys12 of the KRAS 4B G12C protein (Homo sapiens, UniProt P01116, G12C).
T1 construct: This protein contained 188 amino acids in total, including an N-terminal 6-Histidine tag; made in house; host or cells: E. coli BL21
Kind of test: In vitro covalent adduct formation (CAF) assay, LC-MS intact mass. It is filed as binding. The note with it: 10 uM compound, 60 min. The gist of the method:
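GDP-loaded (>95%) His-TEV-tagged KRAS 4B G12C (residues 1–169), 5 μM in TBS pH 7.4, incubated with 10 μM compound (4% DMSO) at 22° C for one hour. Intact-protein LC-MS gave free:adduct ratios, reported as percent protein modified; duplicate runs.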
As to `C=CC(=O)N1C[C@H](C)N(c2nc(=O)n3c4c(c(-c5cc(Br)c(F)cc5F)c(C(F)(F)F)cc24)SCC2(COC2)C3)C[C@H]1C` (atropisomer, axis not shown) [Example 1446, (S)-8′-((2S,5R)-4-Acryloyl-2,5-dimethylpiperazin-1-yl)-11′-(5-bromo-2,4-difluorophenyl)-10′-(trifluoromethyl)-2′H,4′H,6′H-spiro[oxetane-3,3′-[1,4]thiazepino[2,3,4-ij]quinazolin]-6′-one], the “% CAF 10 uM @ 60 min” value worked out at 45%. Take `C=CC(=O)N1[C@H](C)CN(c2nc(=O)n3c4c(c(-c5cc(Br)c(F)cc5F)c(C(F)(F)F)cc24)SC[C@@H]3COC)C[C@@H]1C` (atropisomer, axis not shown) [Example 1447, (3S,10R)-7-((3S,5R)-4-Acryloyl-3,5-dimethylpiperazin-1-yl)-10-(5-bromo-2,4-difluorophenyl)-3-(methoxymethyl)-9-(trifluoromethyl)-2,3-dihydro-5H-[1,4]thiazino[2,3,4-ij]quinazolin-5-one]: the “% CAF 10 uM @ 60 min” value was found to be 97%. On the same count and under the same terms, with `C=CC(=O)N1[C@H](C)CN(c2nc(=O)n3c4c(c(-c5cc(Br)c(F)cc5F)c(C(F)(F)F)cc24)SC[C@@H]3COC)C[C@@H]1C` (atropisomer, axis not shown) [Example 1448, (3S,10S)-7-((3S,5R)-4-Acryloyl-3,5-dimethylpiperazin-1-yl)-10-(5-bromo-2,4-difluorophenyl)-3-(methoxymethyl)-9-(trifluoromethyl)-2,3-dihydro-5H-[1,4]thiazino[2,3,4-ij]quinazolin-5-one] the figure was 95%.

Still in this test, the particulars now being: 10 uM compound, 60 min incubation.
`C=CC(=O)N1C[C@H](C)N(c2nc(=O)n3c4c(c(-c5cc(Cl)c(F)cc5F)c(C(F)(F)F)cc24)SCC2(COC2)C3)C[C@H]1C` (single isomer, unassigned) [Example 1120]: the “% CAF 10 uM @ 60 min” value came out at 64.9%. For the compound `C=CC(=O)N1C[C@H](C)N(c2nc(=O)n3c4c(c(-c5cc(Cl)c(F)cc5F)c(C(F)(F)F)cc24)SCC2(COC2)C3)C[C@H]1C` (single isomer, unassigned) [Example 1121], the “% CAF 10 uM @ 60 min” value came out at 95.5%. In the case of `C=CC(=O)N1[C@H](C)CN(c2nc(=O)n3c4c(c(-c5cc(Cl)c(F)cc5F)c(C(F)(F)F)cc24)SC[C@@H]3COC)C[C@@H]1C` (single isomer, unassigned) [Example 1139], the “% CAF 10 uM @ 60 min” value is listed as 95.9%.

On to `C=CC(=O)N1[C@H](C)CN(c2nc(=O)n3c4c(c(-c5cc(Cl)c(F)cc5F)c(C(F)(F)F)cc24)SC[C@@H]3COC)C[C@@H]1C` (single isomer, unassigned) [Example 1140], for which the “% CAF 10 uM @ 60 min” value came to 93.9%.

Staying with this test, now noted: after 60 min.
For `C=CC(=O)N1[C@H](C)CN(c2nc(=O)n3c4c(c(-c5ccc(F)cc5F)c(C(F)(F)F)cc24)SC[C@H](N(C)C)C3)C[C@@H]1C` [Example 1001, (3R)-8-((3S,5R)-4-acryloyl-3,5-dimethylpiperazin-1-yl)-11-(2,4-difluorophenyl)-3-(dimethylamino)-10-(trifluoromethyl)-3,4-dihydro-2H,6H-[1,4]thiazepino[2,3,4-ij]quinazolin-6-one], the “CAF (% binding after 60 min)” value is reported as 84%. With `C=CC(=O)N1CCN(c2nc(=O)n3c4c(c(-c5ccc(F)cc5)c(C(F)(F)F)cc24)SC[C@H](O)C3)CC1` [Example 1002, (R)-8-(4-acryloylpiperazin-1-yl)-11-(4-fluorophenyl)-3-hydroxy-10-(trifluoromethyl)-3,4-dihydro-2H,6H-[1,4]thiazepino[2,3,4-ij]quinazolin-6-one], the “CAF (% binding after 60 min)” value was found to be 97%. The same measure, in the same setting: with `C=CC(=O)N1[C@H](C)CN(c2nc(=O)n3c4c(c(-c5ccc(F)cc5)c(C(F)(F)F)cc24)SC[C@@H](O)C3)C[C@@H]1C` [Example 1003, (S)-8-((3S,5R)-4-acryloyl-3,5-dimethylpiperazin-1-yl)-11-(4-fluorophenyl)-3-hydroxy-10-(trifluoromethyl)-3,4-dihydro-2H,6H-[1,4]thiazepino[2,3,4-ij]quinazolin-6-one] the figure was 95%; with `C=CC(=O)N1CCN(c2nc(=O)n3c4c(c(-c5ccc(F)cc5)c(C(F)(F)F)cc24)SC[C@@H](OCOC)C3)CC1` [Example 1004, (S)-8-(4-acryloylpiperazin-1-yl)-11-(4-fluorophenyl)-3-(methoxymethoxy)-10-(trifluoromethyl)-3,4-dihydro-2H,6H-[1,4]thiazepino[2,3,4-ij]quinazolin-6-one], 97%; with `C=CC(=O)N1CCN(c2nc(=O)n3c4c(c(-c5ccc(F)cc5)c(C(F)(F)F)cc24)SC[C@H](OCOC)C3)CC1` [Example 1005, (R)-8-(4-acryloylpiperazin-1-yl)-11-(4-fluorophenyl)-3-(methoxymethoxy)-10-(trifluoromethyl)-3,4-dihydro-2H,6H-[1,4]thiazepino[2,3,4-ij]quinazolin-6-one], 97%. Take `C=CC(=O)N1CCN(c2nc(=O)n3c4c(c(-c5ccc(F)c(Cl)c5)c(C(F)(F)F)cc24)SC[C@H](OCOC)C3)CC1` [Example 1006, (R)-8-(4-acryloylpiperazin-1-yl)-11-(3-chloro-4-fluorophenyl)-3-(methoxymethoxy)-10-(trifluoromethyl)-3,4-dihydro-2H,6H-[1,4]thiazepino[2,3,4-ij]quinazolin-6-one]: the “CAF (% binding after 60 min)” value stood at 90%. Turning to `C=CC(=O)N1CCN(c2nc(=O)n3c4c(c(-c5ccc(F)c(Cl)c5)c(C(F)(F)F)cc24)SC[C@@H](OCOC)C3)CC1` [Example 1007, (S)-8-(4-acryloylpiperazin-1-yl)-11-(3-chloro-4-fluorophenyl)-3-(methoxymethoxy)-10-(trifluoromethyl)-3,4-dihydro-2H,6H-[1,4]thiazepino[2,3,4-ij]quinazolin-6-one], the “CAF (% binding after 60 min)” value worked out at 97%. `C=CC(=O)N1CCN(c2nc(=O)n3c4c(c(-c5cc(Cl)c(F)cc5F)c(C(F)(F)F)cc24)SC[C@H](OCOC)C3)CC1` [Example 1008, (3R)-8-(4-acryloylpiperazin-1-yl)-11-(5-chloro-2,4-difluorophenyl)-3-(methoxymethoxy)-10-(trifluoromethyl)-3,4-dihydro-2H,6H-[1,4]thiazepino[2,3,4-ij]quinazolin-6-one]: the “CAF (% binding after 60 min)” value turned out to be 92%. For `C=CC(=O)N1[C@H](C)CN(c2nc(=O)n3c4c(c(-c5ccc(F)cc5)c(C(F)(F)F)cc24)SC[C@H](OCOC)C3)C[C@@H]1C` [Example 1009, (R)-8-((3S,5R)-4-acryloyl-3,5-dimethylpiperazin-1-yl)-11-(4-fluorophenyl)-3-(methoxymethoxy)-10-(trifluoromethyl)-3,4-dihydro-2H,6H-[1,4]thiazepino[2,3,4-ij]quinazolin-6-one], the “CAF (% binding after 60 min)” value is reported as 96%. Turning to `C=CC(=O)N1[C@H](C)CN(c2nc(=O)n3c4c(c(-c5ccc(F)cc5)c(C(F)(F)F)cc24)SC[C@@H](OCOC)C3)C[C@@H]1C` [Example 1010, (S)-8-((3S,5R)-4-acryloyl-3,5-dimethylpiperazin-1-yl)-11-(4-fluorophenyl)-3-(methoxymethoxy)-10-(trifluoromethyl)-3,4-dihydro-2H,6H-[1,4]thiazepino[2,3,4-ij]quinazolin-6-one], the “CAF (% binding after 60 min)” value was 96%. Turning to `C=CC(=O)N1[C@H](C)CN(c2nc(=O)n3c4c(c(-c5ccc(F)cc5F)c(C(F)(F)F)cc24)SC[C@H](OCOC)C3)C[C@@H]1C` [Example 1011, (3R)-8-((3S,5R)-4-acryloyl-3,5-dimethylpiperazin-1-yl)-11-(2,4-difluorophenyl)-3-(methoxymethoxy)-10-(trifluoromethyl)-3,4-dihydro-2H,6H-[1,4]thiazepino[2,3,4-ij]quinazolin-6-one], the “CAF (% binding after 60 min)” value was 97%. Same read-out and setting: with `C=CC(=O)N1[C@H](C)CN(c2nc(=O)n3c4c(c(-c5ccc(F)cc5F)c(C(F)(F)F)cc24)SC[C@@H](OCOC)C3)C[C@@H]1C` [Example 1012, (3S)-8-((3S,5R)-4-acryloyl-3,5-dimethylpiperazin-1-yl)-11-(2,4-difluorophenyl)-3-(methoxymethoxy)-10-(trifluoromethyl)-3,4-dihydro-2H,6H-[1,4]thiazepino[2,3,4-ij]quinazolin-6-one] the figure was 95%. On to `C=CC(=O)N1[C@H](C)CN(c2nc(=O)n3c4c(c(-c5ccc(F)c(Cl)c5)c(C(F)(F)F)cc24)SC[C@H](OCOC)C3)C[C@@H]1C` [Example 1013, (R)-8-((3S,5R)-4-acryloyl-3,5-dimethylpiperazin-1-yl)-11-(3-chloro-4-fluorophenyl)-3-(methoxymethoxy)-10-(trifluoromethyl)-3,4-dihydro-2H,6H-[1,4]thiazepino[2,3,4-ij]quinazolin-6-one], for which the “CAF (% binding after 60 min)” value was 95%. Same read-out and setting: with `C=CC(=O)N1[C@H](C)CN(c2nc(=O)n3c4c(c(-c5ccc(F)c(Cl)c5)c(C(F)(F)F)cc24)SC[C@@H](OCOC)C3)C[C@@H]1C` [Example 1014, (S)-8-((3S,5R)-4-acryloyl-3,5-dimethylpiperazin-1-yl)-11-(3-chloro-4-fluorophenyl)-3-(methoxymethoxy)-10-(trifluoromethyl)-3,4-dihydro-2H,6H-[1,4]thiazepino[2,3,4-ij]quinazolin-6-one] the figure was 96%.

For `C=CC(=O)N1[C@H](C)CN(c2nc(=O)n3c4c(c(-c5cc(Cl)c(F)cc5F)c(C(F)(F)F)cc24)SC[C@@H](OCOC)C3)C[C@@H]1C` [Example 1015, (3S)-8-((3S,5R)-4-acryloyl-3,5-dimethylpiperazin-1-yl)-11-(5-chloro-2,4-difluorophenyl)-3-(methoxymethoxy)-10-(trifluoromethyl)-3,4-dihydro-2H,6H-[1,4]thiazepino[2,3,4-ij]quinazolin-6-one], the “CAF (% binding after 60 min)” value turned out to be 84%.
